Test results from patent publication US20030103945A1, “Methods and compositions for stimulating axon regeneration and preventing neuronal cell degeneration” (priority 2001, published 2003).
Where a SMILES comes first, the peptide text is derived from it. The star is where a group is joined. Cbz = O=C(OCc1ccccc1)*; CH2F = FC*

Tests used:
retinal explants = test: Retinotectal explant coculture, cell death (SYTOX green) and retinal axon growth; type: cell-based, mouse; design: protection of cells from death compared with bcl-2 transgenic mouse: dose or concentration left out as unconfirmed; details: wild-type P2 mice
Text: Whether these two activities of neurons, survival and axonal growth, can be separated in vitro was next examined. The anti-apoptotic function of bcl-2 is well established (Davies, A. A TINS 18, 355-358 (1995); Korsmeyer, S. J. hnmunol. Today 13, 285-288 (1992); Farlie, et al. Proc. Natl. Acad Sci. USA 92, 4397-4401 (1995); Bonfanti, L. et al. J Neurosci. 16, 4186-4194 (1996)). Therefore, it is especially important to examine whether its growth-promoting activity is simply an indirect consequence of supporting cell survival. […] Note that this occurs in the absence of any neurotrophic factors added to the culture medium. The effect of the ICE inhibitor was also tested in the explant coculture system with tissue prepared from wild-type P2 mice. […] While treatment with ZVAD was sufficient to prevent death of RGCs, it is not sufficient to promote axonal growth. […] Evidence from other investigators (when viewed in conjunction with that provided herein) also support the theme that cell survival and axonal growth are two independent activities of neurons (Sagot, Y., Tan, S. A-Hammang, J. P., Aebischer, P. & Kato, A. C. J Neurosci. 16, 2335-2341 (1996); Dusart, 1. & Sotelo, C. J Comp. Neurol. 347, 211-232 (1994)). The regenerative failure of retinal axons and the decrease of bcl-2 levels in RGCs occur (E 18) before programmed cell death starts (P 1 P5) (Young, R. W. J Comp. Neurol. 229, 362-373 (1984)). […] These all support the position that bcl-2 promotes axonal growth through a mechanism independent of its anti apoptotic activity.
Brains were dissected into ice-cold Gey's balanced salt solution enriched with glucose. […] Retinal explants were abutted against tectal slices. Tissues were placed on the microporous membrane of Millicell wells (Millipore) and maintained in NeuralBasal medium supplemented with B27 (GIBCO Inc., New York) at 370C for five days. To exclude the possibility that tectal tissues from mutant mice may affect axonal growth of RGCs, a series of parallel experiments were performed in which one retinal explant of each mouse was confronted with the tecturn from the same mouse, while the second retinal explant was placed against the tecturn from another mouse. With this arrangement, retinal explants from each animal had the possibility of being cocultured with the tecturn from a wild-type, heterozygous, or homozygous animal. The number of regenerating axons was sampled by applying the lipophilic carbocyanine fluorescent label, DiI, in crystals to fixed retinal explants. The cocultures were stored in fixative for two-four weeks to allow diffusion of the dye, and labeled retinal axons were viewed with a fluorescence microscope (Nikon).
The brain sections were visualized with a Nikon microscope and site of the lesion was reconstructed in 3 dimensions with MIT Neurotrace computer software. Primary cultures of dissociated retinal cells were prepared from […] wild type or transgenic animals. RGCs were prelabeled by injecting DiI solution (25% in Dimethyl Formamide) into the tectal region bilaterally in PO pups. Cells were plated in 24-cell wells treated with poly-L-lysine (10 μg/ml, 4° C. overnight) and coated with Human Merosin ([…], r.t., 2 hr)(Meyer-Franke, A. and Barres, B. A. Neuron 15, 805-819 (1995)). Cultures were maintained for 2 to 3 days in NeuralBasal medium supplemented with B27. […] Cell death was detected by staining with the fluorescent dye, SYTOX green fluorescent dead cell stain (Molecular Probes). […]

RGCs = test: Dissociated retinal cell culture, RGC survival and neurite outgrowth; type: cell-based, mouse; design: RGC death in dissociated retinal cell culture: dose or concentration left out as unconfirmed
Text: Whether these two activities of neurons, survival and axonal growth, can be separated in vitro was next examined. The anti-apoptotic function of bcl-2 is well established (Davies, A. A TINS 18, 355-358 (1995); Korsmeyer, S. J. hnmunol. Today 13, 285-288 (1992); Farlie, et al. Proc. Natl. Acad Sci. USA 92, 4397-4401 (1995); Bonfanti, L. et al. J Neurosci. 16, 4186-4194 (1996)). Therefore, it is especially important to examine whether its growth-promoting activity is simply an indirect consequence of supporting cell survival. […] Note that this occurs in the absence of any neurotrophic factors added to the culture medium. The effect of the ICE inhibitor was also tested in the explant coculture system with tissue prepared from wild-type P2 mice. […] While treatment with ZVAD was sufficient to prevent death of RGCs, it is not sufficient to promote axonal growth. […]
The brain sections were visualized with a Nikon microscope and site of the lesion was reconstructed in 3 dimensions with MIT Neurotrace computer software. […] Cell death was detected by staining with the fluorescent dye, SYTOX green fluorescent dead cell stain (Molecular Probes). […]

[1] = increasing concentration of ZVAD (50, 100, 200)

With `CC(C)[C@H](NC(=O)OCc1ccccc1)C(=O)N[C@@H](C)C(=O)N[C@@H](CC(=O)O)C(=O)CF` [ZVAD, Z-Val-Ala-Asp-CH2F] (Cbz-Val-Ala-Asp-CH2F) the “number of axons that invaded tectal slices, wild-type cultures versus bcl-2 transgenic mice” value (retinal explants; 200 mM ZVAD) was 10 fold less, the “number of dying cells in retinal explants with increasing concentration” value (retinal explants; [1]) was “decreased” and the “number of growing axons with increasing concentration” value (retinal explants; [1]) was “did not change significantly”. The “protection of cells from death compared with bcl-2 transgenic mouse” value (retinal explants) was “protected cells from death almost as well as bcl-2 in the transgenic mouse”, the “extent of cell death in retinal explants” value (retinal explants; explant coculture) was “reduced the extent of cell death in retinal explants” and the “RGC death in dissociated retinal cell culture” value (RGCs; 2 days in culture, retinae of P2 pups) was “effectively reduced RGC death”. The “morphology and neurites of labeled RGCs from wild-type animals” value (RGCs; ZVAD-treated dissociated culture, no neurotrophic factors added) was “round and devoid of neurites”.
